Laboratory results from ChEMBL document CHEMBL1201862, “PubChem BioAssay data set” (2004).
The source made the active and inactive calls.

Columns and labels:
Assay type in all cases: functional
[1] = molecular target: Megakaryocyte-associated tyrosine-protein kinase (Homo sapiens, UniProt P42679);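 further: affinity measured as one member of a kinase panel (Navigating the Kinome) against MATK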
[2] = molecular target: Ribosomal protein S6 kinase alpha-3 (Homo sapiens, UniProt P51812);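 further: measured within a kinome-wide profiling panel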
[3] = molecular target: cGMP-dependent protein kinase 1 (Homo sapiens, UniProt Q13976);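 further: value from a kinome panel screen with PRKG1 as the panel member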
[4] = molecular target: Serine/threonine-protein kinase PLK3 (Homo sapiens, UniProt Q9H4B4)
[5] = molecular target: RAC-gamma serine/threonine-protein kinase (Homo sapiens, UniProt Q9Y243)
[6] = molecular target: ALK tyrosine kinase receptor (Homo sapiens, UniProt Q9UM73);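 further: ALK tested as one member of a kinase panel screen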
[7] = molecular target: Serine/threonine-protein kinase D2 (Homo sapiens, UniProt Q9BZL6);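 further: measured against PRKD2 as one member of a kinome-wide kinase profiling panel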
[8] = molecular target: Tyrosine-protein kinase receptor TYRO3 (Homo sapiens, UniProt Q06418);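 further: TYRO3 value obtained as one member of a kinome-wide profiling panel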
[9] = molecular target: Serine/threonine-protein kinase D3 (Homo sapiens, UniProt O94806);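 further: determined within a kinase panel screen, with PRKCN as the panel member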
[10] = molecular target: Death-associated protein kinase 3 (Homo sapiens, UniProt O43293);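 further: measured as one member of a kinome-wide profiling panel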
[11] = molecular target: Serine/threonine-protein kinase Chk2 (Homo sapiens, UniProt O96017);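 further: CHEK2 entry within a kinome-wide screening panel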
[12] = molecular target: Tyrosine-protein kinase BTK (Homo sapiens, UniProt Q06187)
[13] = molecular target: Mast/stem cell growth factor receptor Kit (Homo sapiens, UniProt P10721);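 further: KIT entry within a kinase panel assay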
[14] = molecular target: Serine/threonine-protein kinase PAK 4 (Homo sapiens, UniProt O96013);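 further: value obtained within a kinome profiling panel in which PAK4 was one of the panel members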
[15] = molecular target: Calcium/calmodulin-dependent protein kinase type II subunit delta (Homo sapiens, UniProt Q13557)
[16] = molecular target: Mitogen-activated protein kinase 9 (Homo sapiens, UniProt P45984);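 further: value from a kinome panel profiling assay, MAPK9 panel entry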
[17] = molecular target: Tyrosine-protein kinase ITK/TSK (Homo sapiens, UniProt Q08881);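 further: affinity for ITK measured as one member of a broad kinase panel profiling binding across the kinome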
[18] = molecular target: Serine/threonine-protein kinase TAO1 (Homo sapiens, UniProt Q7L7X3)
[19] = molecular target: Testis-specific serine/threonine-protein kinase 1 (Homo sapiens, UniProt Q9BXA7)
[20] = molecular target: Homeodomain-interacting protein kinase 2 (Homo sapiens, UniProt Q9H2X6);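 further: measured within a kinome-wide kinase profiling panel, HIPK2 being one panel member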
Insulin receptor = Insulin receptor (Homo sapiens, UniProt P06213);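 further: insulin receptor kinase tested as one member of a kinome-wide kinase panel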
[21] = molecular target: Serine/threonine-protein kinase pim-3 (Homo sapiens, UniProt Q86V86);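 further: value obtained as one member of a broad kinase panel profiling effort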
[22] = molecular target: Non-receptor tyrosine-protein kinase TYK2 (Homo sapiens, UniProt P29597)
[23] = molecular target: Proto-oncogene tyrosine-protein kinase Src (Homo sapiens, UniProt P12931);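 further: SRC entry within a kinome-wide kinase profiling panel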
[24] = molecular target: Tyrosine-protein kinase Srms (Homo sapiens, UniProt Q9H3Y6);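 further: SRMS measured as one member of a kinome-wide kinase profiling panel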
[25] = molecular target: Glycogen synthase kinase-3 alpha (Homo sapiens, UniProt P49840);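 further: GSK3A result taken from a broad kinome-wide kinase panel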
[26] = molecular target: Mitogen-activated protein kinase kinase kinase kinase 2 (Homo sapiens, UniProt Q12851);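 further: measured as one member of a kinome-wide kinase panel, with MAP4K2 as the panel entry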
[27] = molecular target: Receptor-type tyrosine-protein kinase FLT3 (Homo sapiens, UniProt P36888);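 further: FLT3 was tested as one member of a kinome-wide kinase panel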
[28] = molecular target: MAP kinase-activated protein kinase 3 (Homo sapiens, UniProt Q16644);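 further: value comes from a kinome-wide profiling panel in which MAPKAPK3 is one of the panel members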
[29] = molecular target: Calcium/calmodulin-dependent protein kinase type II subunit beta (Homo sapiens, UniProt Q13554)
[30] = molecular target: Insulin-like growth factor 1 receptor (Homo sapiens, UniProt P08069); experiment: Navigating the Kinome. Panel member name: IGF1R
[31] = molecular target: Mitogen-activated protein kinase 1 (Homo sapiens, UniProt P28482)
Misshapen-like kinase 1 = Misshapen-like kinase 1 (Homo sapiens, UniProt Q8N4C8);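 further: kinome panel screen with MINK as the panel member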
[32] = molecular target: Serine/threonine-protein kinase Nek4 (Homo sapiens, UniProt P51957)
[33] = molecular target: Protein kinase C iota type (Homo sapiens, UniProt P41743);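 further: measured within a kinome-wide kinase panel, PRKCI as panel member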
[34] = molecular target: cAMP-dependent protein kinase catalytic subunit PRKX (Homo sapiens, UniProt P51817)
[35] = molecular target: Tyrosine-protein kinase Fyn (Homo sapiens, UniProt P06241)
[36] = molecular target: Homeodomain-interacting protein kinase 4 (Homo sapiens, UniProt Q8NE63)
[37] = molecular target: Cyclin-dependent kinase 1 (Homo sapiens, UniProt P06493);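 further: Kinome-wide panel profiling, with the target listed as panel member CDC2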
[38] = molecular target: Serine/threonine-protein kinase DCLK1 (Homo sapiens, UniProt O15075);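 further: affinity for DCLK1 (listed as DCAMKL1) measured as one member of a kinome-wide kinase profiling panel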
[39] = molecular target: Cyclin-dependent kinase 7 (Homo sapiens, UniProt P50613);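 further: value comes from a kinome-wide kinase profiling panel in which CDK7 is one member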
[40] = molecular target: STE20-like serine/threonine-protein kinase (Homo sapiens, UniProt Q9H2G2)
[41] = molecular target: Fibroblast growth factor receptor 3 (Homo sapiens, UniProt P22607)
[42] = molecular target: Serine/threonine-protein kinase PLK1 (Homo sapiens, UniProt P53350);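 further: PLK1 measured as one member of a kinome-wide profiling panel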
[43] = molecular target: Glycogen synthase kinase-3 beta (Homo sapiens, UniProt P49841);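 further: value comes from a broad kinome profiling panel, with GSK3B as the panel member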
[44] = molecular target: BDNF/NT-3 growth factors receptor (Homo sapiens, UniProt Q16620);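 further: NTRK2 measured as one member of a broad kinome-wide kinase profiling panel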
[45] = molecular target: Dual specificity protein kinase CLK4 (Homo sapiens, UniProt Q9HAZ1)

Chain of Glycogen synthase kinase-3 beta (P49841 whole entry): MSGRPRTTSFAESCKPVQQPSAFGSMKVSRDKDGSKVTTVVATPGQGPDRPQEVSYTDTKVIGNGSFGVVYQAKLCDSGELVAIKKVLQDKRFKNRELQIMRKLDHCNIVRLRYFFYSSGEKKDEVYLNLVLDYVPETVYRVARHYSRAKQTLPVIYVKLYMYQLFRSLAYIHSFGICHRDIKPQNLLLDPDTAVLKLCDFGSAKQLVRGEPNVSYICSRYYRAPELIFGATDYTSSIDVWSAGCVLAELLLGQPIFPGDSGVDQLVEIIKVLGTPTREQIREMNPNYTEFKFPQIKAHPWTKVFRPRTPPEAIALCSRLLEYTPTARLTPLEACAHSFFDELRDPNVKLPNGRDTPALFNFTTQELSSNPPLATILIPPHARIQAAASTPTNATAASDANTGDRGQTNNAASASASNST
Chain of MAP kinase-activated protein kinase 3 (Q16644 whole entry): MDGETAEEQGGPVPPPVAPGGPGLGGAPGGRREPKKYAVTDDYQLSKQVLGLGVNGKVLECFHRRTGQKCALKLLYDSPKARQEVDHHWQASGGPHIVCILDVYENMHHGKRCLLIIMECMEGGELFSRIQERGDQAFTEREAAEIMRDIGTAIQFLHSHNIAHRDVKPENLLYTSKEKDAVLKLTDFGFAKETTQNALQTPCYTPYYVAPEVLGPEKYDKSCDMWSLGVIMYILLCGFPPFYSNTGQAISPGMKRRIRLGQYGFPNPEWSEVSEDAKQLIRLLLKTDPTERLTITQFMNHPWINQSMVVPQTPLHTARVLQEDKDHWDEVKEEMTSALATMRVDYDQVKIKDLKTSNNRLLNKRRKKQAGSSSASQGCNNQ
Chain of Tyrosine-protein kinase Srms (Q9H3Y6 whole entry): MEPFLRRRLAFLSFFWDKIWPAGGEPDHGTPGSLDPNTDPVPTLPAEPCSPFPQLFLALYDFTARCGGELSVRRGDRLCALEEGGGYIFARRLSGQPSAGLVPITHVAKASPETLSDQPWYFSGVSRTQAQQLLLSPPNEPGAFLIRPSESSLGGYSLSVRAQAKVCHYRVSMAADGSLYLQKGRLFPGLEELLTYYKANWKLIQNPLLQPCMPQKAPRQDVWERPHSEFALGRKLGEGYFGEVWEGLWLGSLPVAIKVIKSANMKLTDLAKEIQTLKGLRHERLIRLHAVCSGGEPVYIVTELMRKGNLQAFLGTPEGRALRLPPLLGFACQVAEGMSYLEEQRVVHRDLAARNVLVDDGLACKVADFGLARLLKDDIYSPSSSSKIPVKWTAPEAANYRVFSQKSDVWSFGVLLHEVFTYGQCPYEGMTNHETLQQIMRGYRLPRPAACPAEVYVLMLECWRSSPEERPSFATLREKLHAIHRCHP
Chain of Mitogen-activated protein kinase 1 (P28482 whole entry): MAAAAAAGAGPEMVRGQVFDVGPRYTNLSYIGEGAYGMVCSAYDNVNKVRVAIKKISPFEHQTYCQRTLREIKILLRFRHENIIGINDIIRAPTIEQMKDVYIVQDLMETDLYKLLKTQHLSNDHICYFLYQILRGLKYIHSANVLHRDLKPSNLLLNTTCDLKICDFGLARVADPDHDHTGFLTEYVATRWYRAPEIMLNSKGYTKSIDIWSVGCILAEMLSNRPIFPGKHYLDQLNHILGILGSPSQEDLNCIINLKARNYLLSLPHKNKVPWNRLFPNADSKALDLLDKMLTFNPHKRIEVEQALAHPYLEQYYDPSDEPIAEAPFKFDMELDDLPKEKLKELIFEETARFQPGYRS
Chain of Tyrosine-protein kinase receptor TYRO3 (Q06418 whole entry): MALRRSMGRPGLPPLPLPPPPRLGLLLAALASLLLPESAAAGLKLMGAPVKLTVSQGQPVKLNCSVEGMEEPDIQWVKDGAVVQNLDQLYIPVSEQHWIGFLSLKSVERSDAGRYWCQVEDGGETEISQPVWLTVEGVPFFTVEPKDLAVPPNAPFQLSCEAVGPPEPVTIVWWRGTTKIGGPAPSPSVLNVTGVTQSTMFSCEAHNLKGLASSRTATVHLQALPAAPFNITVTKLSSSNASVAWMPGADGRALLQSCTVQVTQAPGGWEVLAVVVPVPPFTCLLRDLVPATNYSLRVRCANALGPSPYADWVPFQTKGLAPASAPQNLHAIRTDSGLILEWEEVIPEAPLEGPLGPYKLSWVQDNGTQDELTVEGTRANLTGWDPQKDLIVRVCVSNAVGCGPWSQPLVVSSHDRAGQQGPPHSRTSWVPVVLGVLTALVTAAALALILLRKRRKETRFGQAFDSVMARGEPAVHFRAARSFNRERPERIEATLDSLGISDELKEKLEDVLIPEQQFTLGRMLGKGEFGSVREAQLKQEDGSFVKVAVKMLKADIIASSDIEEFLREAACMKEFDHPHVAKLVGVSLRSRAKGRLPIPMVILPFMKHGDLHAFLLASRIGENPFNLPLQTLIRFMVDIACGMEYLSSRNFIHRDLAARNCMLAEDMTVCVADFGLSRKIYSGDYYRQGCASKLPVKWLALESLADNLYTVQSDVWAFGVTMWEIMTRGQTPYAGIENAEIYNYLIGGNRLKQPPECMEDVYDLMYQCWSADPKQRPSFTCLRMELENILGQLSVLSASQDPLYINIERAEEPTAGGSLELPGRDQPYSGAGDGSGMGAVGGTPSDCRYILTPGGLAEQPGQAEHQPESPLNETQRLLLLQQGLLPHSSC
Chain of Calcium/calmodulin-dependent protein kinase type II subunit beta (Q13554 whole entry): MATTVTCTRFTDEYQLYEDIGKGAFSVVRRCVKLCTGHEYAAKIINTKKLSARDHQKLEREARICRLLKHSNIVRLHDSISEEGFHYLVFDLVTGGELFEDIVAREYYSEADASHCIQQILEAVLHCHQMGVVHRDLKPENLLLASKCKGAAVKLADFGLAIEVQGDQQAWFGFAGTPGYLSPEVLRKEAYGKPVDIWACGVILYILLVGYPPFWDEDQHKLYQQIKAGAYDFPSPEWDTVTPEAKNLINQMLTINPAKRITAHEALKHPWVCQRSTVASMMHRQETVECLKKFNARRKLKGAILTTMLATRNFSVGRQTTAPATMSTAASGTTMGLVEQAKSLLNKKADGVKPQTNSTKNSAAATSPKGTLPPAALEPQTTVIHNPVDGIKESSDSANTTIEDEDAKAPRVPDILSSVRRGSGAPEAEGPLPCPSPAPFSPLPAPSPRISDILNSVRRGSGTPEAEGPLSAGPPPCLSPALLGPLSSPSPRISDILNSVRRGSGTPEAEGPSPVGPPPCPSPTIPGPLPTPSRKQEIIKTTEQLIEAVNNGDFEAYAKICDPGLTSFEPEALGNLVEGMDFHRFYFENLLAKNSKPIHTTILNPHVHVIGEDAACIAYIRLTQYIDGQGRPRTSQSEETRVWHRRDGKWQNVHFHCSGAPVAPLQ
Chain of RAC-gamma serine/threonine-protein kinase (Q9Y243 whole entry): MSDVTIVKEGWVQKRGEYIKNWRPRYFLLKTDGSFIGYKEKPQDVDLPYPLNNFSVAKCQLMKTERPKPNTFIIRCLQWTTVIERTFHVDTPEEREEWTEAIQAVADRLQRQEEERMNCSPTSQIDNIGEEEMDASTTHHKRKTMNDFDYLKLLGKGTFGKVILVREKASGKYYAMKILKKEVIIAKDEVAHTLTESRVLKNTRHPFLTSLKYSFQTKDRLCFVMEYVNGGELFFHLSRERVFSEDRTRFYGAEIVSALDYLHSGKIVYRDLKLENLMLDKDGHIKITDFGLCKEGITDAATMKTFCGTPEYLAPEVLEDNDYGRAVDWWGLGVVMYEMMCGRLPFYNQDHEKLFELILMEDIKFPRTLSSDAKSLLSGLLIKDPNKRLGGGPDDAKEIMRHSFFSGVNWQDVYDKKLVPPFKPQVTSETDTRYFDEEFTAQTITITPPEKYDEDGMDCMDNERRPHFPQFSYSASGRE
Chain of Misshapen-like kinase 1 (Q8N4C8 whole entry): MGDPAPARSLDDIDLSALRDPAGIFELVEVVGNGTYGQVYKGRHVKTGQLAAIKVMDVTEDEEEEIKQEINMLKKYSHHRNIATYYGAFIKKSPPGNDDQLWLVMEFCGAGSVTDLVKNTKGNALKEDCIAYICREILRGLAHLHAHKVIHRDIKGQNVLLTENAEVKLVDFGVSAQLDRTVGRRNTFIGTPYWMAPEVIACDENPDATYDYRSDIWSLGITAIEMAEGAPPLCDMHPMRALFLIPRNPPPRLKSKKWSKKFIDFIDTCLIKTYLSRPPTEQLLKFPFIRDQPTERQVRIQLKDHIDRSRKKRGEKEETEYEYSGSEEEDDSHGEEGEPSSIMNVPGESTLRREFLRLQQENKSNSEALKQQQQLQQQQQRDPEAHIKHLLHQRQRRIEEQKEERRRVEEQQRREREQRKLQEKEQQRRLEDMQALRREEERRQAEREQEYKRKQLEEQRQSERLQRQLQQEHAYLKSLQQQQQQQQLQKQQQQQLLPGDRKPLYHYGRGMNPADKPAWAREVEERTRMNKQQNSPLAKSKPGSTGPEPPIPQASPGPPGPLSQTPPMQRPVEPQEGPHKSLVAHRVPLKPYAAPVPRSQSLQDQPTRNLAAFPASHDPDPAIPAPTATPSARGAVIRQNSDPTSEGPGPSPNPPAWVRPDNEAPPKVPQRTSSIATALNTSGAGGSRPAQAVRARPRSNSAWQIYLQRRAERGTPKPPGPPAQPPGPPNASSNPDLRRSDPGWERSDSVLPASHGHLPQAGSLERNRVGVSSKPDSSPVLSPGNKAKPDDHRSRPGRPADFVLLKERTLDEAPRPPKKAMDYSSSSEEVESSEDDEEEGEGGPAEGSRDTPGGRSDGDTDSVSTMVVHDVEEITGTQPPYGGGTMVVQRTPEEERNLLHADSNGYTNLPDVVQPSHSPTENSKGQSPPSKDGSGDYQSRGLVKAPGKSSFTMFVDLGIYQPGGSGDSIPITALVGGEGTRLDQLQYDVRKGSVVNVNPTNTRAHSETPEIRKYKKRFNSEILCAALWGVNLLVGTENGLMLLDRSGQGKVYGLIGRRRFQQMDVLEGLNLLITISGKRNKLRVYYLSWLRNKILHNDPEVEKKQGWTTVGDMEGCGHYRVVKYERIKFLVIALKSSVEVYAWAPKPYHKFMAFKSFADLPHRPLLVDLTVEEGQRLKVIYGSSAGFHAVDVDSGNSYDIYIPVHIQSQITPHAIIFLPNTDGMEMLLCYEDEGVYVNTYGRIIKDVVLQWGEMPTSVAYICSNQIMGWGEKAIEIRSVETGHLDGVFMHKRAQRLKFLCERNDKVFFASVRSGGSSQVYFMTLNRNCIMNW

In the case of NC1CCCCC1Nc1nccc(-c2c[nH]c3ncccc23)n1 (configuration not stated), the Ki [1] is reported as > 2000 nM (inactive), the Ki [2] is reported as 100 nM (active) and the Ki [3] is reported as 158 nM (active). The Ki [4] was > 7940 nM (inactive), the Ki [5] was 501 nM (active) and the Ki [6] was > 1260 nM (inactive). The Ki [7] was 501 nM (active), the Ki [8] was > 2000 nM (inactive) and the Ki [9] was 79.4 nM (active). The Ki [10] was 39.8 nM (active), the Ki [11] was > 1580 nM (inactive) and the Ki [12] was > 1260 nM (inactive). For the same compound, the Ki [13] was > 1260 nM (inactive), the Ki [14] was 100 nM (active) and the Ki [15] was 39.8 nM (active). The Ki [16] was > 3980 nM (inactive), the Ki [17] was > 1580 nM (inactive) and the Ki [18] was 3980 nM (active). For the same compound, the Ki [19] was 15.8 nM (active), the Ki [20] was 25.1 nM (active) and the Ki (Insulin receptor) was > 5010 nM (inactive). For the same compound, the Ki [21] was 501 nM (active), the Ki [22] was > 2000 nM (inactive) and the Ki [23] was > 2000 nM (inactive). The Ki [24] was > 1580 nM (inactive), the Ki [25] was 158 nM (active) and the Ki [26] was 79.4 nM (active). The Ki [27] was 316 nM (active), the Ki [28] was > 10000 nM (inactive) and the Ki [29] was 316 nM (active). The Ki [30] was > 2000 nM (inactive), the Ki [31] was 501 nM (active) and the Ki (Misshapen-like kinase 1) was 126 nM (active). The Ki [32] was 3160 nM (active), the Ki [33] was 200 nM (active) and the Ki [34] was 31.6 nM (active). The Ki [35] was > 794 nM (inactive), the Ki [36] was 1580 nM (active) and the Ki [37] was 158 nM (active). The Ki [38] was 3160 nM (active), the Ki [39] was 6.31 nM (active) and the Ki [40] was 316 nM (active). For the same compound, the Ki [41] was > 2000 nM (inactive), the Ki [42] was > 7940 nM (inactive) and the Ki [43] was 200 nM (active). The Ki [44] was > 5010 nM (inactive) and the Ki [45] was 6.31 nM (active).
